In patent US20220144815A1, “1,3,4-OXADIAZOLES AND THEIR DERIVATIVES AS NEW ANTIFUNGAL AGENTS” (Bayer Aktiengesellschaft, priority 2018, published 2022):

Experiment: Log P by HPLC on reversed phase columns, method [a] (EEC directive 79/831 Annex V.A8)
Assay type: physicochemical
Conditions: log P determined according to method [a] (HPLC on reversed phase columns)
Procedure: Measurement of Log P values as provided herein was performed according to EEC directive 79/831 Annex V.A8 by HPLC (High Performance Liquid Chromatography) on reversed phase columns with the following methods: • ^[a] Log P value is determined by measurement of LC-UV, in an acidic range, with 0.1% formic acid in water and acetonitrile as eluent (linear gradient from 10% acetonitrile to 95% acetonitrile). • ^[b] Log P value is determined by measurement of LC-UV, in a neutral range, with 0.001 molar ammonium acetate solution in water and acetonitrile as eluent (linear gradient from 10% acetonitrile to 95% acetonitrile). • ^[c] Log P value is determined by measurement of LC-UV, in an acidic range, with 0.1% phosphoric acid and acetonitrile as eluent (linear gradient from 10% acetonitrile to 95% acetonitrile). If more than one Log P value is available within the same method, all the values are given and separated by “+”. Calibration was done with straight-chain alkan2-ones (with 3 to 16 carbon atoms) with known Log P values (measurement of Log P values using retention times with linear interpolation between successive alkanones). Lambda-max-values were determined using UV-spectra from 200 nm to 400 nm and the peak values of the chromatographic signals In table 1, the log P values were determined according to method [^a]. In table 2, the log P values were determined according to method [^a].

logP | SMILES
3.04 | FC(F)c1nnc(-c2cnc(Sc3ccccc3)nc2)o1 [Example I-092]
0.75 | Nc1ncc(-c2nnc(C(F)F)o2)cn1 [Example I-059]
2.28 | CC1(C(=O)Nc2ccc(-c3nnc(C(F)F)o3)cn2)CC1 [Example I-045]
3.25 | CC(C)(C)OC(=O)N1CCN(c2ccc(-c3nnc(C(F)F)o3)cn2)CC1 [Example I-058]
2.72 | FC(F)c1nnc(-c2ccc(N3CCCCC3)nc2)o1 [Example I-040]
2.54 | O=C(Cc1ccccc1)Nc1ccc(-c2nnc(C(F)F)o2)cn1 [Example I-050]
3.32 | FC(F)c1nnc(-c2cnc(-c3ccccc3Cl)nc2)o1 [Example I-099]
2.57 | Cc1noc(C)c1-c1ncc(-c2nnc(C(F)F)o2)cn1 [Example I-081]
2.35 | COC(=O)c1ccc(-c2nnc(C(F)F)o2)cc1 [Example I-003]
1.91 | FC(F)c1nnc(-c2ccc(N3CCOCC3)nc2)o1 [Example I-041]
2.89 | CC1(C2(Nc3ncc(-c4nnc(C(F)F)o4)cn3)CC2)CC1 [Example I-097]
2.75 | FC(F)c1nnc(-c2cnc(OCc3ccccc3)nc2)o1 [Example I-090]
3.40 | FC(F)c1nnc(-c2cnc(CC3CCCCC3)nc2)o1 [Example I-083]

Same assay, conditions: reversed phase HPLC column; Method A: LC-UV, acidic range, 0.1% formic acid in water and acetonitrile; read-out: Log P

chromatographic logP | SMILES
1.99 | O=C(NNC(=O)C(F)F)c1cnc(NC2(c3ccccc3)CCC2)nc1 [N′-(difluoroacetyl)-2-[(1-phenylcyclobutyl)amino]pyrimidine-5-carbohydrazide]

Same assay, conditions: reversed phase HPLC column; log P determined according to method [a] (HPLC on reversed phase columns); read-out: logP

chromatographic logP | SMILES
3.19 | Fc1ccc(C2(Oc3ncc(-c4nnc(C(F)F)o4)cn3)CC2)cc1 [I.149, 5-[5-(difluoromethyl)-1,3,4-oxadiazol-2-yl]-2-{[1-(4-fluorophenyl)cyclopropyl]oxy}pyrimidine]
3.1 | FC(F)c1nnc(-c2cnc(Nc3ccccc3C3CC3)nc2)o1 [I.119, N-(2-cyclopropylphenyl)-5-[5-(difluoromethyl)-1,3,4-oxadiazol-2-yl]pyrimidin-2-amine]
3.34 | CC(C)(Nc1ncc(-c2nnc(C(F)F)o2)cn1)c1c(F)cccc1F [I.168, 5-[5-(difluoromethyl)-1,3,4-oxadiazol-2-yl]-N-[2-(2,6-difluorophenyl)propan-2-yl]pyrimidin-2-amine]
3.34 | FC(F)c1nnc(-c2cnc(NC3(c4ccccc4Cl)CC3)nc2)o1 [I.163, N-[1-(2-chlorophenyl)cyclopropyl]-5-[5-(difluoromethyl)-1,3,4-oxadiazol-2-yl]pyrimidin-2-amine]
3.6 | FC(F)c1nnc(-c2cnc(-c3ccc(Cl)cc3)nc2)o1 [I.101, 2-(4-chlorophenyl)-5-[5-(difluoromethyl)-1,3,4-oxadiazol-2-yl]pyrimidine]
2.59 | FC(F)c1nnc(-c2cnc(-c3cncc(Cl)c3)nc2)o1 [I.103, 2-(5-chloropyridin-3-yl)-5-[5-(difluoromethyl)-1,3,4-oxadiazol-2-yl]pyrimidine]
2.62 | Fc1ccccc1CNc1ncc(-c2nnc(C(F)F)o2)cn1 [I.111, 5-[5-(difluoromethyl)-1,3,4-oxadiazol-2-yl]-N-(2-fluorobenzyl)pyrimidin-2-amine]

Same assay, conditions: reversed phase HPLC column; method [a], HPLC on reversed phase columns; read-out: logP

chromatographic logP | SMILES
2.68 | Cc1ccc(C(C)(CO)Nc2ncc(-c3nnc(C(F)F)o3)cn2)cc1C (racemic) [I.235, (2RS)-2-({5-[5-(difluoromethyl)-1,3,4-oxadiazol-2-yl]pyrimidin-2-yl}amino)-2-(3,4-dimethylphenyl)propan-1-ol]
3.25 | FC(F)c1nnc(-c2cnc(NC3(c4ccc(C(F)(F)F)cc4)CC3)nc2)o1 [I.250, 5-[5-(difluoromethyl)-1,3,4-oxadiazol-2-yl]-N-{1-[4-(trifluoromethyl)phenyl]cyclopropyl}pyrimidin-2-amine]
1.38 | FC(F)c1nnc(-c2cnc(NC3(c4ccccn4)CCCC3)nc2)o1 [I.219, 5-[5-(difluoromethyl)-1,3,4-oxadiazol-2-yl]-N-[1-(pyridin-2-yl)cyclopentyl]pyrimidin-2-amine]
3.18 | FC(F)c1nnc(-c2cnc(NC3(c4ccco4)CCCC3)nc2)o1 [I.208, 5-[5-(difluoromethyl)-1,3,4-oxadiazol-2-yl]-N-[1-(2-furyl)cyclopentyl]pyrimidin-2-amine]
4.09 | C#CCN(c1ncc(-c2nnc(C(F)F)o2)cn1)C1(c2ccccc2F)CC1 [I.241, 5-[5-(difluoromethyl)-1,3,4-oxadiazol-2-yl]-N-[1-(2-fluorophenyl)cyclopropyl]-N-(prop-2-yn-1-yl)pyrimidin-2-amine]
3.12 | CC(Cc1ccc(F)cc1)Nc1ncc(-c2nnc(C(F)F)o2)cn1 (racemic) [I.210, 5-[5-(difluoromethyl)-1,3,4-oxadiazol-2-yl]-N-[(2RS)-1-(4-fluorophenyl)propan-2-yl]pyrimidin-2-amine]
3.71 | FC(F)c1nnc(-c2cnc(NC3(c4ccc(Cl)cc4)CCC3)nc2)o1 [I.237, N-[1-(4-chlorophenyl)cyclobutyl]-5-[5-(difluoromethyl)-1,3,4-oxadiazol-2-yl]pyrimidin-2-amine]
3.59 | Fc1cc(C(F)(F)F)ccc1C1(Nc2ncc(-c3nnc(C(F)F)o3)cn2)CC1 [I.263, 5-[5-(difluoromethyl)-1,3,4-oxadiazol-2-yl]-N-{1-[2-fluoro-4-(trifluoromethyl)phenyl]cyclopropyl}pyrimidin-2-amine]
3.19 | CC(C)(Nc1ncc(-c2nnc(C(F)F)o2)cn1)c1ccccc1F [I.212, 5-[5-(difluoromethyl)-1,3,4-oxadiazol-2-yl]-N-[2-(2-fluorophenyl)propan-2-yl]pyrimidin-2-amine]
3.74 | CC(Nc1ncc(-c2nnc(C(F)F)o2)cn1)C1CCCCC1 (racemic) [I.193, N-[(1RS)-1-cyclohexylethyl]-5-[5-(difluoromethyl)-1,3,4-oxadiazol-2-yl]pyrimidin-2-amine]
3.33 | Fc1ccc(C2(Nc3ncc(-c4nnc(C(F)F)o4)cn3)CCC2)cc1 [I.220, 5-[5-(difluoromethyl)-1,3,4-oxadiazol-2-yl]-N-[1-(4-fluorophenyl)cyclobutyl]pyrimidin-2-amine]
0.65 | CC(Nc1ncc(-c2nnc(C(F)F)o2)cn1)c1ccncc1 (racemic) [I.190, 5-[5-(difluoromethyl)-1,3,4-oxadiazol-2-yl]-N-[(1RS)-1-(pyridin-4-yl)ethyl]pyrimidin-2-amine]
1.29 | FC(F)c1nnc(-c2cnc(NC3(c4cccnc4)CCCC3)nc2)o1 [I.218, 5-[5-(difluoromethyl)-1,3,4-oxadiazol-2-yl]-N-[1-(pyridin-3-yl)cyclopentyl]pyrimidin-2-amine]
3.01 | CC(Nc1ncc(-c2nnc(C(F)F)o2)cn1)c1ccc(F)cc1F (racemic) [I.215, 5-[5-(difluoromethyl)-1,3,4-oxadiazol-2-yl]-N-[(1RS)-1-(2,4-difluorophenyl)ethyl]pyrimidin-2-amine]
3.91 | O=C(N(c1ncc(-c2nnc(C(F)F)o2)cn1)C1(c2ccccc2F)CC1)C(F)(F)F [I.267, N-{5-[5-(difluoromethyl)-1,3,4-oxadiazol-2-yl]pyrimidin-2-yl}-2,2,2-trifluoro-N-[1-(2-fluorophenyl)cyclopropyl]acetamide]
3.46 | Cc1ccc(C(C)(C)Nc2ncc(-c3nnc(C(F)F)o3)cn2)cc1 [I.204, 5-[5-(difluoromethyl)-1,3,4-oxadiazol-2-yl]-N-[2-(4-methylphenyl)propan-2-yl]pyrimidin-2-amine]
2.91 | FC(F)Oc1ccc(C2(Nc3ncc(-c4nnc(C(F)F)o4)cn3)CC2)cc1 [I.247, N-{1-[4-(difluoromethoxy)phenyl]cyclopropyl}-5-[5-(difluoromethyl)-1,3,4-oxadiazol-2-yl]pyrimidin-2-amine]
2.7 | CC(Nc1ncc(-c2nnc(C(F)F)o2)cn1)c1cccs1 (racemic) [I.192, 5-[5-(difluoromethyl)-1,3,4-oxadiazol-2-yl]-N-[(1RS)-1-(2-thienyl)ethyl]pyrimidin-2-amine]
3.11 | FC(F)c1nnc(-c2cnc(NC3(c4cccc(Cl)c4)CC3)nc2)o1 [I.227, N-[1-(3-chlorophenyl)cyclopropyl]-5-[5-(difluoromethyl)-1,3,4-oxadiazol-2-yl]pyrimidin-2-amine]
3.24 | FC(F)c1nnc(-c2cnc(NC3(c4cccc(C(F)(F)F)c4)CC3)nc2)o1 [I.249, 5-[5-(difluoromethyl)-1,3,4-oxadiazol-2-yl]-N-{1-[3-(trifluoromethyl)phenyl]cyclopropyl}pyrimidin-2-amine]
3.43 | FC(F)c1nnc(-c2cnc(NC3(c4ccc(Cl)c(Cl)c4)CC3)nc2)o1 [I.252, N-[1-(3,4-dichlorophenyl)cyclopropyl]-5-[5-(difluoromethyl)-1,3,4-oxadiazol-2-yl]pyrimidin-2-amine]
3.79 | CC(C)(Cc1ccc(F)cc1)Nc1ncc(-c2nnc(C(F)F)o2)cn1 [I.223, 5-[5-(difluoromethyl)-1,3,4-oxadiazol-2-yl]-N-[1-(4-fluorophenyl)-2-methylpropan-2-yl]pyrimidin-2-amine]
